From ChEMBL document CHEMBL1127221, “The design of a dipeptide library for screening at peptide receptor sites” (Bioorg Med Chem Lett, 1993)

Key:
[1] = molecular target: T1, Gastrin/cholecystokinin type B receptor (Homo sapiens, UniProt P32239); test: Inhibitory activity against Cholecystokinin type B receptor
T1 sequence (P32239 whole entry): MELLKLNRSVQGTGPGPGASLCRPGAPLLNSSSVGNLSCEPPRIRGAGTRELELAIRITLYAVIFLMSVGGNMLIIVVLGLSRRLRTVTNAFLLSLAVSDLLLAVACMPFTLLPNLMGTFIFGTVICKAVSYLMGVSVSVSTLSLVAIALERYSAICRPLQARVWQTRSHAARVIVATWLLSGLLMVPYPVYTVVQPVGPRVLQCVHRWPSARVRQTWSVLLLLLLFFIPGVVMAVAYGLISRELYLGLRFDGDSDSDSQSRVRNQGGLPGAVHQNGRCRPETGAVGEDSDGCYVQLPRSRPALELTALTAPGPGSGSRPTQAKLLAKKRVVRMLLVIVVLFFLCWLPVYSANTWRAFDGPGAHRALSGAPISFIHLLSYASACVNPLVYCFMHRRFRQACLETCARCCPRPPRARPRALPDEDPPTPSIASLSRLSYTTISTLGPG

[2] = molecular target: Angiotensin-converting enzyme (Homo sapiens, UniProt P12821); test: Inhibitory activity against Angiotensin I converting enzyme
[3] = molecular target: T2, Cholecystokinin receptor type A (Homo sapiens, UniProt P32238); test: Inhibitory activity against CCK-A receptor
T2 sequence (P32238 whole entry): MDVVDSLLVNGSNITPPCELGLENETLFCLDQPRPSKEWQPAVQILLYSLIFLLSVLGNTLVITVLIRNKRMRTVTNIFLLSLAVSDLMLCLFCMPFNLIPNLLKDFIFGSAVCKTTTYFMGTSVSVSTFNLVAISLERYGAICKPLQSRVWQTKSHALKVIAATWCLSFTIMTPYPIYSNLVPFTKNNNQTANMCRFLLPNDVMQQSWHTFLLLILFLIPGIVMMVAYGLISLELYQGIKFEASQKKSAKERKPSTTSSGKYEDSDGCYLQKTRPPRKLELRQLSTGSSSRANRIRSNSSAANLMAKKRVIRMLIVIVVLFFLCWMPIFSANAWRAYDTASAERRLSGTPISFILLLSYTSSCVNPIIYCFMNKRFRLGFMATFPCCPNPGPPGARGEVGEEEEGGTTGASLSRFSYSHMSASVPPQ

Sequence of Angiotensin-converting enzyme (P12821 whole entry): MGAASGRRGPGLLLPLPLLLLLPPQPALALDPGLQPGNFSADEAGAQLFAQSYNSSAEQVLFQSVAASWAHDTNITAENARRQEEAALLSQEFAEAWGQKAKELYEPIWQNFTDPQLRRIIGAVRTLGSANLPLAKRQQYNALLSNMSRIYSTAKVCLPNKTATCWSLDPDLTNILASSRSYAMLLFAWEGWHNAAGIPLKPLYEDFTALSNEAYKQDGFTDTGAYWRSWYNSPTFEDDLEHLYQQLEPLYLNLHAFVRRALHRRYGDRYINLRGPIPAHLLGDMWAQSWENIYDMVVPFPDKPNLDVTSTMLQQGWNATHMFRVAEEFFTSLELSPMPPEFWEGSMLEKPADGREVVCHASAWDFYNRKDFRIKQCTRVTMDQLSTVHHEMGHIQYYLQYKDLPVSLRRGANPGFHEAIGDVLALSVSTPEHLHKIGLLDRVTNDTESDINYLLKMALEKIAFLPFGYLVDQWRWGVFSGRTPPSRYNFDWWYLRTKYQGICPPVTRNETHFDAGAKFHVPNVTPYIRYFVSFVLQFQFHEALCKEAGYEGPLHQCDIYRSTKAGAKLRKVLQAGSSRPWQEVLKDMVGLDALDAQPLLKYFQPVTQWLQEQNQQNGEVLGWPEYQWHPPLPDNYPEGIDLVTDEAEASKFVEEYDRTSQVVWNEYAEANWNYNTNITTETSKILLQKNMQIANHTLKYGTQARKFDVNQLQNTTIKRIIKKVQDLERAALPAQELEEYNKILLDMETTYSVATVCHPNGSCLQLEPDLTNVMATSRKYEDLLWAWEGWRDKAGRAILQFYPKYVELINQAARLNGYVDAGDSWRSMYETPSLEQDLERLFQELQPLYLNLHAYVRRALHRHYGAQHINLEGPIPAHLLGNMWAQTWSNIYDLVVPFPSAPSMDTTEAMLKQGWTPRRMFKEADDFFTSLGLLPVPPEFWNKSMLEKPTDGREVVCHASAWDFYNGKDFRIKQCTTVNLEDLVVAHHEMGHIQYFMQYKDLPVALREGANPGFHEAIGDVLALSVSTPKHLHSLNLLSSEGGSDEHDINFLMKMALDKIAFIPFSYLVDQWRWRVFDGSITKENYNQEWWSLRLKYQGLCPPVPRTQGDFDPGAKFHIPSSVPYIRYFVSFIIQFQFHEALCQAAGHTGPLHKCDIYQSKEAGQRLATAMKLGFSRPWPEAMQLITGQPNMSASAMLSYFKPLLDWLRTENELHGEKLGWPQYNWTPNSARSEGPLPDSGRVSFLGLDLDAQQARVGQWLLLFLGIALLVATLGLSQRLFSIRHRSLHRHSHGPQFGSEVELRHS

`C[C@@](N)(Cc1cn(C(=O)OC2C3CC4CC(C3)CC2C4)c2ccccc12)C(=O)NC[C@H](NC(=O)CCC(=O)O)c1ccccc1` (stereo partly drawn) was tested, and the Ki [1] was 1.7 nM.
H-EWPRPQIPP-OH was tested, and the Ki [2] was 100 nM.
With `C[C@@](N)(Cc1cn(C(=O)OC2C3CC4CC(C3)CC2C4)c2ccccc12)C(=O)N[C@H](CC(=O)O)Cc1ccccc1` (stereo partly drawn) the Ki [3] was 3 nM.
